For assay [1], the system named is SW480 tumor cells. Kind of assay: Immune cell co-culture of TALL-104 T cells and SW480 tumor cells. Format: cell-based, Human. The settings on record: for dead cells out of total cells, average, after normalization: 1:1 TALL-104 to SW480. Here is the method: (§1) Immune cell co-culture experiments. Co-culture experiments were conducted with GFP+ SW480 or HCT-116 colorectal cancer cells and either NK-92 natural killer cells or TALL-104 T cells in a 48-well plate, in the presence or absence of 9-ING-41. HCT-116 cells were labeled using CellTracker™ Green CMFDA (5-chloromethylfluorescein diacetate), immune cells (NK-92, TALL-104) were labeled using CellTracker™ Blue CMAC Dye (7-amino-4-chloromethylcoumarin), and ethidium homodimer-1 (EthD-1) was used as a marker of cell death (Invitrogen, Thermo Fisher Scientific, Waltham, MA, USA).
Co-culture experiments were conducted with GFP+ SW480 colorectal cancer cells and either NK-92 natural killer cells or TALL-104 T cells at various effector/target ratios in a 48-well plate, in the presence or absence of 9-ING-41.
The compound 9-lNG-41 boosts immune cell-mediated tumor cell-killing in a co-culture model. A co-culture of GFP+ SW480 tumor cells and Green CMFDA-labeled TALL-104 T cells treated with 9-ING-41 lead to an increase in tumor cell death after twenty-four hours. […] In the co-culture with tumor and immune cells only, in the absence of drug, the inventors noted that the percentage of dead cells out of total cells was approximately 27%, after normalization. Normalization was carried out by subtracting the percentage of cell death due to drug or vehicle control (DMSO) only from the percentage of dead cells observed in the co-culture treated with drug.
Pre-treatment with 9-ING-41 sensitizes SW480 tumor cells to immune cell-mediated cell killing. To determine if the increased amount of immune-cell mediated tumor cell-killing was due to the drug's impact on the tumor cells or the immune cells, the inventors next pre-treated tumor cells with 9-ING-41 for twenty-four hours before the co-culture with immune cells began. Pre-treatment with 9-ING-41 sensitized SW480 tumor cells to TALL-104 cell-mediated cell killing. The raw percentages of cell death were used to normalize the data. The inventors confirmed these co-culture results using healthy, CD8+ T cells instead of TALL-104 cells.

Assay [2] concerns SW480 tumor cells. Kind of assay: Co-culture of CD8+ donor-derived healthy T cells and SW480 tumor cells. It counts as cell-based, Human. Here is the method:
Isolation of donor derived CD8+ T cells. An Easy Step Human CD8+ T Cell Isolation Kit was used to isolated CD8+ T cells from a donor PBMC sample via negative selection (Cat #, 17913, Stem Cell Technologies, Vancouver, Canada).
as §1
TALL-104 cells are a human leukemic T cell line. […] Healthy CD8+ T cells were isolated from a donor blood sample consistent with an IRB-approved protocol. A co-culture of GFP+ SW480 tumor cells and Green CM FDA-labeled CD8+ donor-derived healthy T cells was then treated with 9-ING-41 and the % of dead cells out of total cells was quantified after twenty-four hours. […] The data was then normalized, as described earlier.
Pre-treatment with 9-ING-41 sensitizes SW480 tumor cells to immune cell-mediated cell killing. […]

For assay [3], the system named is HCT-116 colorectal cancer cells. Kind of assay: Co-culture of HCT-116 and NK-92 cells with or without αPD-1 therapy. Format: cell-based, Human. The conditions noted are these: 9-ING-41+NK-92. Here is the method: as §1
For assay [4] the test system is unchanged. Kind of assay: Western blot analysis, HCT-116. Format: cell-based, Human. Here is the method:
(§2) Western blot analysis. Cells were plated in a 6-well plate and incubated overnight before the spent media was replaced with drugged media. Drug treatment lasted for indicated durations. Protein was extracted using radioimmunoprecipitation (RIPA) assay buffer (Cat #R0278, Sigma-Aldrich, St. Louis, MO) containing cOmplete™ Mini, EDTA-free Protease Inhibitor Cocktail (Cat #4693159001, Roche, Basel, Switzerland). Denaturing sample buffer was added, samples were boiled at 95 degrees for 10 minutes. An equal amount of protein lysate was electrophoresed through NuPAGE™ 4 to 12%, Bis-Tris, 1.5 mm, Mini Protein Gels (Invitrogen, Waltham, MA, USA) then transferred to PVDF membranes. The PVDF membrane was blocked with 5% non-fat milk (Sigma-Aldrich, St. Louis, MO, USA) in 1× TTBS. Primary antibodies were incubated with the transferred PVDF membrane in blocking buffer at 4° C. overnight. Secondary antibodies used included goat anti-rabbit IgG (H+L) secondary antibody, HRP (Cat #31460, Invitrogen, Waltham, MA, USA) and goat anti-mouse IgG (H+L) secondary antibody, HRP (Cat #31430, Invitrogen, Waltham, MA, USA). Signal was detected using a Syngene Imaging System.
9-ING-41 treatment decreases survival factor expression while increasing PD-L1 levels in colorectal cancer cell lines. To elucidate the mechanism behind the differential effects of 9-ING-41 on either colorectal cancer or immune cells in co-culture and cytokine profiling assays, the inventors performed Western blot analyses on tumor and immune cells treated with 9-ING-41 over a 72-hour time course.
Treating cells from colorectal cancer cell lines with 1 μM 9-ING-41 decreases Surivin, NF-κB p65, and IκBα while increasing PD-L1 levels in, 9-ING-41 treatment of immune cells increases NIK. Western blot analysis of HCT-116 and HT-29 colorectal cancer cells for expression of indicated proteins after increasing durations of 9-ING-41 treatment (0-72 hours). Western blot analysis of TALL-104 T cells for expression of indicated proteins after increasing durations of 9-ING-41 treatment (0-72 hours). Analysis of Mcl-1 expression in HCT-116 colorectal cancer cells and NK-92 natural killer cells after increasing durations of 9-ING-41 treatment.

Assay [5] relates to NK-92 natural killer cells. Kind of assay: Western blot analysis of Mcl-1, NK-92. It counts as cell-based, Human. The settings on record: through the 48-hour endpoint. The procedure:
as §2
Treating cells from colorectal cancer cell lines with 1 μM 9-ING-41 decreases Surivin, NF-κB p65, and IκBα while increasing PD-L1 levels in, 9-ING-41 treatment of immune cells increases NIK. […]

For another assay, the system named is ovarian cancer. The conditions noted are these: cited from earlier work.
A further assay has as its system CT-26. Kind of assay: Syngeneic murine colon carcinoma BALB/c model with MSS cell line CT-26, survival and response. The conditions noted are these: mouse, in vivo.

Entries after “also recorded” stand apart in the source; their conditions may differ.

Method for CT-26: In vivo studies. […] Six to seven weeks old male BALB/c mice were purchased from Taconic. […] 100 μL was injected subcutaneously into the rear flanks. Once tumor volume reached at least 100 mm3, mice were randomly assigned to one of four groups (three mice/group): vehicle, ONC212, 2-DG, combination of ONC212 p2-DG. ONC212 was delivered by oral gavage at the dosage of 50 mg/kg in a solution of 70% phosphate-buffered serum, 10% DMSO, and 20% Kolliphor EL (Sigma-Aldrich, catalog no. C5135), three times per week. The treatment continued until mice developed signs of toxicity or discomfort from excessive tumor growth. Mice were weighed once a week to monitor signs of drug toxicity. The length (L) and width (VV) of the masses were measured three times per week with a digital caliper. The tumor volume was calculated applying the formula: 0.5LW2.
To evaluate the potential for 9-ING-41 to increase efficacy of immune checkpoint blockade, the inventors used a syngeneic murine colon carcinoma BALB/c murine model with a microsatellite stable (MSS) cell line CT-26.

Consider `Cn1cc(C2=C(c3coc4ccc(F)cc34)C(=O)NC2=O)c2cc3c(cc21)OCO3` [9-ING-41], for which the “dead cells out of total cells, average, after normalization” value with SW480 tumor cells [1] (5 μM 9-ING-41, 24-hour co-culture) was found to be 33%; in the assay with SW480 tumor cells [1] (10 μM 9-ING-41, 24-hour co-culture) it was 37%. The “amount of TALL-104 cell-mediated SW480 cell-killing” value in the assay on SW480 tumor cells [1] (after treatment, 24 hours) was “dose-dependent increase”. In the assay with SW480 tumor cells [1] (compared to controls without drug treatment), the “T cell (TALL-104) killing of colorectal cancer cells” value was “significant increase”. For the same molecule, the “tumor cell death in SW480 monocultures treated with drug only” value in the assay on SW480 tumor cells [1] (monoculture, no immune cells) is “Limited tumor cell death”. Moreover, the “TALL-104 cell-mediated cell killing after tumor cell pre-treatment” value with SW480 tumor cells [1] (tumor cells pre-treated 24 hours before co-culture) is on record as “sensitized”. The “tumor cell death in co-cultures with CD8+ donor-derived healthy T cells” value in the assay on SW480 tumor cells [2] (24 hours, normalized) is listed as “Even more impressive tumor cell death”. In addition, the “tumor cell death after tumor cell pre-treatment, CD8+ T cells” value with SW480 tumor cells [2] (pre-treatment of tumor cells, 24 hours of co-culture) is listed as “statistically significant increase in tumor cell death”. For the same molecule, in assay [3], the “benefit over combination αPD-1 therapy+NK-92 only groups” value is listed as “significant benefit”. Moreover, the IKKR result in assay [4] (1 μM, 0-72 hours) is reported as “No changes”. In addition, the “Survivin, NF-κB-inducing kinase (NIK), NF-κB, IKBα, pIKBα, and Bcl-2” value in assay [4] (1 μM, by the 72-hour timepoint) is on record as “decreases”. For the same molecule, in assay [4] (1 μM, until the 48-hour timepoint), the cPARP result is reported as “little to no cPARP”. The PD-L1 expression result in assay [4] (as the treatment duration increased) is “increases”. Besides, the Mcl-1 protein expression entry in assay [4] (by the 24-hour timepoint) was “marked decreases”; in assay [5], “did not observe a significant decrease”. For the same molecule, the “activity compared with lithium and other ATP-competitive inhibitors such as SB216763” value with ovarian cancer is given as “more active”. In addition, in the assay with CT-26, the “survival compared to control group” value is reported as “statistically significant improved survival; also recorded: prolonged the survival”.

(Values after US20240009170A1, “INHIBITION OF GLYCOGEN SYNTHASE KINASE-3 (GSK-3)” (Brown University, priority 2020, published 2024).)
